{"source": "patent US9539237B2", "about": "“Compositions and methods for drug-sensitization or inhibition of a cancer cell” (The Texas A&M University System, priority 2012, dated 2017)", "key": {"[1]": {"test_system": "CHOP-sensitive NHL cell line CRL2631", "assay": "Cell growth assay (resazurin fluorescence) on CRL2631 cells", "format": "cell-based, human", "text": "Several human cell lines were utilized as in vitro models of NHL, including the CRL2631 line obtained from the American Type Culture Collection (ATCC). CRL2631 was established from peripheral blood leukocytes (PBL) of a patient with DLBCL.\nIn these experiments, the following cell lines were used: CHOP-resistant NHL cell line G3, CHOP-sensitive NHL cell line CRL2631, the multi-drug resistant sarcoma cell line MES-SA-Dx5; multi-drug-resistant breast cancer cell line MDA-MB-231, multi-drug resistant ovarian carcinoma cell line SK-OV3, multi-drug resistant ovarian cancer cell line NCI/ADR-RES, drug-sensitive ovarian cancer cell line OVCAR-5, and multi-drug resistant ovarian cancer cell line OVCAR-3.\nAdditional cell lines used include: ovarian cancer OVCAR-8. T lymphoblastoid leukemia MOLT-4, dexamethasone-resistant multiple myeloma MM.1R, myeloid leukemia cells HL-60, osteosarcoma cells U-2 OS, and myeloma RPMI 8226."}, "[2]": {"test_system": "lymphoma aspirate from a dog with CHOP-resistant lymphoma", "assay": "CHOP responsiveness of lymphoma aspirate from a dog (resazurin)", "format": "cell-based", "method": "A single lymphoma aspirate from a dog with CHOP-resistant lymphoma was tested for responsiveness to CHOP in the presence or absence of rifabutin. CHOP-responsiveness was measured by a decrease in fluorescence signal generated by resazurin."}, "Akt": {"test_system": "Akt", "assay": "Effect on Akt", "format": "cell-based", "text": "Although some drug-sensitization or cancer cell inhibition effects may be mediated by the ROS pathway, compositions and methods of the present disclosure may act via other cellular pathways alternatively to or in addition to the Akt/14-3-3ζ/ETC/ROS network. This may be particularly true with respect to drug-sensitization to chemotherapeutics that operate in a different manner than CHOP. For example, ROS may affect the mitochondrial-directed Bcl-2 apoptosis pathway as well. […] Accordingly, it appears likely that an initial ROS induction event may occur, followed by a secondary downstream effect downregulating Akt. In CHOP-resistant cells, Akt is constitutively active thereby increasing Complex I activity resulting in decreases in ROS. Induction of ROS by compositions and methods of the present disclosure will further promote drug sensitivity in the resistant cancer cell by downregulating the Akt pathway."}, "[3]": {"test_system": "primary human fibroblasts", "assay": "Comparative cytotoxicity on primary human fibroblasts", "settings": "FIG. 3A and 3B"}}, "data": [{"smiles": "CO[C@H]1/C=C/O[C@@]2(C)Oc3c(C)c(O)c4c(c3C2=O)C2=NC3(CCN(CC(C)C)CC3)NC2=C(NC(=O)/C(C)=C\\C=C\\[C@H](C)[C@H](O)[C@@H](C)[C@@H](O)[C@@H](C)[C@H](OC(C)=O)[C@@H]1C)C4=O", "note": "[Rifabutin, rifabutin]", "values": [{"measurement": "Sensitivity of cells to CHOP", "setting": "[1]; CHOP-sensitive cells, relative to a control drug, FIG. 2B", "value": "enhanced the sensitivity"}, {"measurement": "Effect on growth of cells in the absence of CHOP", "setting": "[1]; CRL2631 cells, FIG. 2A", "value": "did not affect the growth"}, {"measurement": "Sensitization of low-ROS cell population to CHOP", "setting": "[1]; low-ROS CRL2631 cells, 10 uM rifabutin, FIG. 34", "value": "sensitized to CHOP"}, {"measurement": "Sensitivity of aspirated lymphoma cells to CHOP", "setting": "[2]; 5 μM rifabutin", "value": "significantly enhanced the sensitivity"}, {"measurement": "Effect on cell viability in the absence of CHOP", "setting": "[2]; absence of CHOP", "value": "no effect"}, {"measurement": "Time for the effect on Akt", "setting": "Akt", "value": "at least 18 hours"}, {"measurement": "Toxicity to normal cells", "setting": "[3]", "value": "not toxic"}]}]}
